PubChem BioAssay (NCI)
Values joined by “and” are separate entries in the source; they are usually repeats but may differ in a detail not shown here. Equal entries are not always repeated.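 Cells were grown in 96-well plates and exposed to each compound for 48 hours at five concentrations; endpoints were interpolated linearly between bracketing concentrations, or set to the highest concentration if not reached. Abbreviation: GI50, concentration required for 50% inhibition of growth. The concentration for full growth arrest is given as TGI.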

Key:
Assay in all cases: NCI tumour cell line growth inhibition, 48 h
[1] = tested on: LOX IMVI melanoma
[2] = tested on: K-562 leukemia
[3] = tested on: P388/ADR leukemia
[4] = tested on: IGROV1 ovarian
[5] = tested on: HOP-92 NSCLC
[6] = tested on: OVCAR-8 ovarian
[7] = tested on: KM20L2 colon
[8] = tested on: SF-295 CNS
[9] = tested on: COLO 205 colon
[10] = tested on: HT29 colon
[11] = tested on: MOLT-4 leukemia
[12] = tested on: DLD-1 colon
[13] = tested on: SK-MEL-2 melanoma
[14] = tested on: RPMI-8226 leukemia
[15] = tested on: NCI-H460 lung
[16] = tested on: SF-268 CNS
[17] = tested on: CAKI-1 renal
[18] = tested on: OVCAR-3 ovarian
[19] = tested on: UACC-62 melanoma
[20] = tested on: EKVX NSCLC
[21] = tested on: SNB-78 CNS
[22] = tested on: NCI/ADR-RES ovarian
[23] = tested on: MALME-3M melanoma
[24] = tested on: SW-620 colon
[25] = tested on: SK-OV-3 ovarian
[26] = tested on: HOP-62 NSCLC
[27] = tested on: OVCAR-4 ovarian
[28] = tested on: NCI-H23 lung
[29] = tested on: HL-60(TB) leukemia
[30] = tested on: DMS 114 small cell lung
[31] = tested on: SN12C renal
[32] = tested on: SNB-19 CNS
[33] = tested on: A498 renal
[34] = tested on: HCT-116 colon
[35] = tested on: KM12 colon
[36] = tested on: HOP-18 NSCLC
[37] = tested on: UO-31 renal
[38] = tested on: UACC-257 melanoma
[39] = tested on: M19-MEL melanoma
[40] = tested on: MCF7 breast
[41] = tested on: HCC-2998 colon
[42] = tested on: SNB-75 CNS
[43] = tested on: SF-539 CNS
[44] = tested on: SK-MEL-28 melanoma
[45] = tested on: CCRF-CEM leukemia
[46] = tested on: DMS 273 small cell lung
[47] = tested on: SK-MEL-5 melanoma
[48] = tested on: OVCAR-5 ovarian
[49] = tested on: HCT-15 colon
[50] = tested on: NCI-H522 lung
[51] = tested on: NCI-H226 lung
[52] = tested on: SN12K1 renal
[53] = tested on: U251 CNS
[54] = tested on: A549 NSCLC
[55] = tested on: XF 498 CNS

For `CC/C=C\C/C=C\C/C=C\CCCCCCCC(=O)OC`, the GI50 [1] was 25 µM, the TGI [1] was 68.4 µM and 38.3 µM and the GI50 [2] was 39.4 µM. The TGI [2] was greater than 100 µM, the TGI [3] was 66.3 µM and the TGI [4] was greater than 100 µM. For the same molecule, the TGI [5] was greater than 100 µM, the GI50 [6] was 0.0205 µM and the TGI [6] was 11.8 µM and > 100 µM. For the same molecule, the GI50 [7] was greater than 100 µM, the TGI [7] was greater than 100 µM and the TGI [8] was greater than 100 µM. For the same molecule, the GI50 [9] was greater than 100 µM, the TGI [9] was greater than 100 µM and the TGI [10] was greater than 100 µM. It also gave a TGI [11] greater than 100 µM, a TGI [12] greater than 100 µM and a TGI [13] greater than 100 µM. For the same molecule, the GI50 [14] was 19.8 µM, the TGI [14] was 69.9 µM and > 100 µM and the TGI [15] was greater than 100 µM. For the same molecule, the TGI [16] was greater than 100 µM, the TGI [17] was greater than 100 µM and the TGI [18] was greater than 100 µM. The TGI [19] was greater than 100 µM, the TGI [20] was greater than 100 µM and the GI50 [21] was greater than 100 µM. It also gave a TGI [21] greater than 100 µM, a TGI [22] greater than 100 µM and a TGI [23] greater than 100 µM. The TGI [24] was greater than 100 µM, the TGI [25] was greater than 100 µM and the TGI [26] was greater than 100 µM. The TGI [27] was greater than 100 µM, the TGI [28] was greater than 100 µM and the TGI [29] was 49.9 µM. It also gave a GI50 [30] of 83.3 µM, a TGI [30] greater than 100 µM and a TGI [31] greater than 100 µM. The TGI [32] was greater than 100 µM, the TGI [33] was greater than 100 µM and the GI50 [34] was 70.6 µM. It also gave a TGI [34] greater than 100 µM, a TGI [35] greater than 100 µM and a TGI [36] greater than 100 µM. The TGI [37] was greater than 100 µM, the TGI [38] was greater than 100 µM and the GI50 [39] was 45.1 µM. For the same molecule, the TGI [39] was greater than 100 µM, the GI50 [40] was 37.8 µM and the TGI [40] was greater than 100 µM. The TGI [41] was greater than 100 µM, the GI50 [42] was greater than 100 µM and the TGI [42] was greater than 100 µM. It also gave a TGI [43] greater than 100 µM, a TGI [44] greater than 100 µM and a GI50 [45] of 3.72 µM. For the same molecule, the TGI [45] was greater than 100 µM, the TGI [46] was greater than 100 µM and the TGI [47] was greater than 100 µM. The TGI [48] was greater than 100 µM, the TGI [49] was greater than 100 µM and the TGI [50] was greater than 100 µM. The TGI [51] was greater than 100 µM, the TGI [52] was greater than 100 µM and the TGI [53] was greater than 100 µM. The TGI [54] was greater than 100 µM and the TGI [55] was greater than 100 µM.
